Source: patent US20030224942A1, “Alkylamino-1,3,5-triazines, processes for their preparation and their use as herbicides and plant growth regulators” (priority 2001, published 2003)

Experiments:
[1] = system: Cyperus spp., Echinochloa spp., Digitaria spp., Sagitaria spp. and Scirpus spp.; assay: Action on harmful plants in rice (paddy rice conditions, visual scoring); type: in vivo, typical rice weeds (gramineous and broad-leaved); conditions: applied into the dammed water, visual scoring about three weeks after application
Excerpt: Transplanted and sown rice and also typical rice weeds (gramineous and broad-leaved) are cultivated in closed plastic pots in a greenhouse to the three-leaf stage (Echinochloa crus-galli 1.5-leaf) under paddy rice conditions (dammed height of water: 2-3 cm). This is followed by treatment with the compounds according to the invention. […] After this treatment, the test plants are set up in a greenhouse under optimum growth conditions and are maintained in this way throughout the test period.

[2] = system: Chenopodium spp., Papaver spp., Polygonum spp., Veronica spp. or Viola spp.; assay: Post-emergence effect on weeds (greenhouse pot test, visual scoring); type: in vivo, monocotyledonous and dicotyledonous weeds; conditions: treated at three-leaf stage; visual scoring after about 3 to 4 weeks; application rate of 0.5 kg and less of active substance per hectare

SMILES	herbicidal activity against harmful plants which are typical for rice crops [1]	herbicidal activity post-emergence against harmful plants [2]
C#Cc1cc(C(Nc2nc(C)nc(N)n2)C2CC2)ccc1F (stereo not shown) [Product P4.309]	very good herbicidal activity	very good herbicidal activity
C#Cc1cc(C(Nc2nc(N)nc(C(F)CC)n2)C2CC2)ccc1F (stereo not shown) [Product P29.309]	very good herbicidal activity	very good herbicidal activity
C#Cc1ccc(C(Nc2nc(C)nc(N)n2)C2CC2)cc1 (stereo not shown) [Product P4.1580]	very good herbicidal activity	very good herbicidal activity
C#Cc1cc(C(C)Nc2nc(N)nc(CC)n2)ccc1F (stereo not shown) [Product P7.309]	very good herbicidal activity	very good herbicidal activity
CC#Cc1cc(CNc2nc(N)nc(C(C)F)n2)ccc1F (stereo not shown) [Product P21.384]	very good herbicidal activity	very good herbicidal activity
C#Cc1cc(C(Nc2nc(N)nc(C(C)C)n2)C2CC2)ccc1F (stereo not shown) [Product P14.309]	very good herbicidal activity	very good herbicidal activity
C#Cc1c(F)cc(CNc2nc(N)nc(C(C)(C)F)n2)cc1F [Product P16.352]	very good herbicidal activity	very good herbicidal activity
CC#Cc1cccc(CNc2nc(N)nc(C(C)F)n2)c1 (stereo not shown) [Product P21.1582]	very good herbicidal activity	very good herbicidal activity
CCCCC#Cc1c(C)cc(C(C)Nc2nc(N)nc(C(C)(C)F)n2)cc1C (stereo not shown) [Product P17.728]	very good herbicidal activity	very good herbicidal activity
CC#Cc1cccc(C(C)Nc2nc(N)nc(C(F)CC)n2)c1 (stereo not shown) [Product P27.1582]	very good herbicidal activity	very good herbicidal activity
CCC(F)c1nc(N)nc(NC(C)c2cccc(C(F)=C(F)F)c2)n1 (stereo not shown) [Product P27.1567]	very good herbicidal activity	very good herbicidal activity
CC#Cc1c(F)cc(C(Nc2nc(N)nc(CC)n2)C2CC2)cc1F (stereo not shown) [Product P9.428]	very good herbicidal activity	very good herbicidal activity
C#Cc1ccc(C(C)Nc2nc(N)nc(C(C)C)n2)cc1F (stereo not shown) [Product P12.1620]	very good herbicidal activity	very good herbicidal activity
Cc1nc(N)nc(NCc2ccc(C3CC3)cc2)n1 [Product P1.1604]	very good herbicidal activity	very good herbicidal activity
CC(F)c1nc(N)nc(NC(C)c2ccc(C(F)=C(F)F)cc2)n1 (stereo not shown) [Product P22.1568]	very good herbicidal activity	very good herbicidal activity
CCCCC#Cc1ccc(C(C)Nc2nc(N)nc(C(C)F)n2)cc1 (stereo not shown) [Product P22.1595]	very good herbicidal activity	very good herbicidal activity
CC(C)(F)c1nc(N)nc(NCc2cccc(C(F)=C(F)F)c2)n1 [Product P16.1567]	very good herbicidal activity	very good herbicidal activity
CC#Cc1cc(C(C)Nc2nc(N)nc(C(C)F)n2)ccc1F (stereo not shown) [Product P22.384]	very good herbicidal activity	very good herbicidal activity
CC#Cc1ccc(C(C)Nc2nc(C)nc(N)n2)cc1 (stereo not shown) [Product P2.1583]	very good herbicidal activity	very good herbicidal activity
C#Cc1ccc(C(C)Nc2nc(N)nc(C(C)(C)F)n2)cc1C (stereo not shown) [Product P17.335]	very good herbicidal activity	very good herbicidal activity
C#Cc1cc(C#C)cc(C(C)Nc2nc(N)nc(C(C)F)n2)c1 (stereo not shown) [Product P22.369]	very good herbicidal activity	very good herbicidal activity

SMILES	herbicidal activity against harmful plants which are typical for rice crops [1]	herbicidal activity post-emergence against harmful plants [2]
C#Cc1c(C)cc(C(C)Nc2nc(N)nc(C(C)(C)F)n2)cc1C (stereo not shown) [Product P17.348]	very good herbicidal activity	very good herbicidal activity
CC(F)c1nc(N)nc(NCc2cccc(C3CC3)c2)n1 (stereo not shown) [Product P21.1603]	very good herbicidal activity	very good herbicidal activity
C#Cc1cccc(C(Nc2nc(C)nc(N)n2)C2CC2)c1 (stereo not shown) [Product P4.1579]	very good herbicidal activity	very good herbicidal activity
CC(F)C#Cc1cccc(C(C)Nc2nc(N)nc(C(C)F)n2)c1 (stereo not shown) [Product P22.1597]	very good herbicidal activity	very good herbicidal activity
C#Cc1ccc(C(C)Nc2nc(N)nc(C(F)CC)n2)cc1C (stereo not shown) [Product P27.335]	very good herbicidal activity	very good herbicidal activity
C#Cc1cccc(C(C)Nc2nc(N)nc(C(F)CC)n2)c1 (stereo not shown) [Product P27.1579]	very good herbicidal activity	very good herbicidal activity
Cc1nc(N)nc(NC(c2ccc(F)c(C(F)=C(F)F)c2)C2CC2)n1 (stereo not shown) [Product P4.5]	very good herbicidal activity	very good herbicidal activity
CC(C)(F)c1nc(N)nc(NC(c2cccc(C3CC3)c2)C2CC2)n1 (stereo not shown) [Product P19.1603]	very good herbicidal activity	very good herbicidal activity
C#Cc1cccc(C(C)Nc2nc(N)nc(C(C)F)n2)c1 (stereo not shown) [Product P22.1579]	very good herbicidal activity	very good herbicidal activity
Cc1nc(N)nc(NC(C)c2ccc(C(F)=C(F)F)cc2)n1 (stereo not shown) [Product P2.1568]	very good herbicidal activity	very good herbicidal activity
C#Cc1cc(C(Nc2nc(N)nc(C(C)(C)F)n2)C2CC2)ccc1F (stereo not shown) [Product P19.309]	very good herbicidal activity	very good herbicidal activity
CC#Cc1c(C)cc(C(C)Nc2nc(N)nc(C(C)(C)F)n2)cc1C (stereo not shown) [Product P17.424]	very good herbicidal activity	very good herbicidal activity
CCC(F)c1nc(N)nc(NC(C)c2cc(F)c(C(F)=C(F)F)c(F)c2)n1 (stereo not shown) [Product P27.49]	very good herbicidal activity	very good herbicidal activity
C#Cc1cc(C#C)cc(C(C)Nc2nc(N)nc(CC)n2)c1 (stereo not shown) [Product P7.369]	very good herbicidal activity	very good herbicidal activity
Cc1nc(N)nc(NC(c2ccc(C(F)=C(F)F)cc2)C2CC2)n1 (stereo not shown) [Product P4.1568]	very good herbicidal activity	very good herbicidal activity
CCc1nc(N)nc(NC(C)c2cc(F)c(C(F)=C(F)F)c(F)c2)n1 (stereo not shown) [Product P7.49]	very good herbicidal activity	very good herbicidal activity
CC#Cc1cccc(CNc2nc(N)nc(C(F)CC)n2)c1 (stereo not shown) [Product P26.1582]	very good herbicidal activity	very good herbicidal activity
C#Cc1ccc(C(C)Nc2nc(N)nc(CC)n2)cc1C (stereo not shown) [Product P7.335]	very good herbicidal activity	very good herbicidal activity
CCC(F)c1nc(N)nc(NC(C)c2ccc(F)c(C#CC(C)O)c2)n1 (stereo not shown) [Product P27.840]	very good herbicidal activity	very good herbicidal activity
CCC(F)c1nc(N)nc(NCc2cccc(C(F)=C(F)F)c2)n1 (stereo not shown) [Product P26.1567]	very good herbicidal activity	very good herbicidal activity
